We go through nine compounds from PMC5951806, “Rapid labelling and covalent inhibition of intracellular native proteins using ligand-directed N-acyl-N-alkyl sulfonamide” (Nature Communications, 2018).

In series [1] the target is T1, FKBP12 (Homo sapiens, UniProt P62942).
T1 construct: GST (factor Xa site) (N, cleaved yes); made in house; host or cells: E. coli BL21 Star (DE3)
The series is described as follows: FKBP12 labelling in vitro (MALDI-TOF MS). The series is classed as biochemical. The note with it: for FKBP12 labelling yield: 5 µM FKBP12, 10 µM reagent, pH 7.2, 37 °C. The text has this: Recombinant human FKBP12 was obtained as described in Supplementary Methods.

Series [2] is described as follows: Evaluation of stabilities of LDNASA reagents (hydrolysis in aqueous buffer, HPLC). The note with it: for fraction hydrolysed: after incubation for 48 h at 37 °C, 50 mM HEPES pH 7.2.
Method: FKBP12 labelling was conducted in test tubes by incubating each NASA reagent (1–3) (10 µM) with purified recombinant (wild-type) FKBP12[13] (5 µM, Mw: 11 914 Da) at 37 °C in a buffer solution (pH 7.2). The labelling reactions were monitored by matrix-assisted desorption/ionisation time-of-flight mass spectrometry (MALDI-TOF MS). […] The intrinsic reactivity of the reagents was evaluated by the hydrolysis rate in aqueous buffer.
LDNASA 1–3 (10 μM) and internal standard (Trimethoprim, 10 μM) were incubated in HEPES buffer (50 mM, pH 7.2) at 37 °C. Samples at different time points were taken and analysed by RP-HPLC.
The test system of the next series is endogenous Hsp90. The series is described as follows: Hsp90 labelling with 11 in live HeLa cells in the presence of competitive Hsp90 inhibitors. The note with it: 11 0.5 µM, 10 µM competitive inhibitor.
For the next series, the system named is Hsp90α. The arrangement: method as in Supplementary References 1 and 2. The note with it: reported for Hsp90α; ref Supplementary References 1 and 2; cited from earlier work.
Series [3] has as its target T1, FKBP12. Nature of the series: FKBP12 labelling in HeLa cell lysate (western blotting). The series is classed as biochemical. The note with it: 37 °C. A general note: Immunoblotting shows a protein as a band on a membrane.
Series [4] addresses T1, FKBP12. Nature of the series: Kinetic analysis of FKBP12 labelling. It counts as biochemical. The note with it: for kL, labelling rate constant: FKBP12 100 nM, HEPES pH 7.2, 37 °C, mean of triplicate ± s.d.; for Kd: from curve fitting of kapp vs reagent concentration, FKBP12, pH 7.2, 37 °C; for kinact/KI: pH 7.2, read-out: kL/Kd, second-order rate constant. The text has this:
With the optimal NASA reactive group in hand, we next investigated the reaction kinetics of LD chemistry in in vitro protein labelling. The labelling reaction of LD chemistry follows Eq. (1):1 P+R⇆KdPR→kLP^* where P is a native (non-labelled) protein, R is the reagent, PR is the native protein–reagent complex, P* is the labelled-protein, Kd is the dissociation constant and kL is the rate constant for the labelling process. When [R] > [P], the pseudo-first-order reaction rate (kapp) is given as follows (see Supplementary Methods)[35]:2 P+PR/P0= exp-kappt 3 kapp=kL/1+Kd∕R […]
The reaction time courses of FKBP12 labelling with various concentrations of 1 (200–2000 nM) were monitored by MALDI-TOF MS (Fig. 3b) and plotted to determine kapp using Eq. (2) (Fig. 3c). The values of kapp obtained in this manner were then plotted against the concentration of 1, which were well fitted by Eq. (3) (Fig. 3d). The labelling rate constant kL and the dissociation constant Kd of 1 were determined from curve fitting analysis to be (6.1 ± 0.6) × 10^−3 s^−1 and (2.1 ± 0.2) × 10^−7 M, respectively (the mean of triplicate ± standard deviation (s.d)) (Table 1).
The residual ratio of nonlabelled protein ([P] + [PR]/[P]0) were determined by MALDI-TOF MS (matrix: CHCA). The pseudo-first order reaction rates (kapp) were obtained by fitting the data to Eq. (2). Kinetic parameters were obtained by fitting the data to Eq. (3).
Kinetics of labelling reaction of LD chemistri es
The labelling reaction of LD chemistr y follows as Supplementary Equation (2) 3: where P is a native (non- labelled) protein, R is a reagent, PR is a native protein- reagent complex, P* is a labelled-protein, Kd is a dissociation constant, and k L is a rate constant for labelling process. Hyd r o l ys i s (deactivation) of LD reagents during the labelling process is negligible owing to these stabilities in buffer s olution (Supplementary Figure 3, also see
Supplementary R eferences 4–6) . The equations to be solved for the rate of labelling reaction […]
The solution of the equat ions is
According to the Supplementar y Equation (4), the k L and Kd values were obtained from the […]
Preparation of purif ied FKB P12

The next series has as its target T2, endogenous FKBP12 (Mus musculus, UniProt P26883).
T2 construct: endogenous FKBP12 inside live cells was specifically modified with biotin; endogenous in cells; host or cells: C2C12 mouse myoblast cells (ATCC)
The series is described as follows: Chemical labelling of endogenous FKBP12 in C2C12 cells. The note with it: live C2C12 cells, 1 µM. The series is classed as cell-based. The method, then: We then conducted intracellular endogenous FKBP12 labelling. Mouse myoblast C2C12 cells were incubated in culture medium containing 1 for 10–120 min at 37 °C. The cells were lysed and analysed by western blotting. […] Although the reaction rate was slightly slower than that of the in vitro experiments, probably because of the low membrane-permeability of 1, it should be noted that the labelled band was detectable after just 10 min incubation with 1, highlighting the rapid kinetics of LDNASA chemistry.
Mouse myoblast C2C12 cells (ATCC) (2.0 × 10^5 cells) were cultured in Dulbecco’s modified Eagle’s medium (DMEM) supplemented with 10% foetal bovine serum (FBS, Gibco), penicillin (100 units/ml), streptomycin ([…]), and amphotericin B (250 ng/ml), and incubated in a 5% CO2 humidified chamber at 37 °C. The cells were then incubated in FBS-free DMEM containing reagent (1 μM) at 37 °C for 120 min. As control experiments, the labelling was conducted in the presence of Rapamycin (10 μM). For western blot analysis, after washing twice with PBS, the cells were lysed with RIPA buffer (pH 7.4, 25 mM Tris–HCl, 150 mM NaCl, 0.1% SDS, 1% Nonidet P-40, 0.25% deoxycholic acid) containing 1% protease inhibitor cocktail set III (Calbiochem). […] The samples were subjected to SDS-PAGE and electro-transferred onto an Immun-Blot PVDF membrane (Bio-Rad). The labelled FKBP12 was detected by chemiluminescence analysis using Streptavidin-HRP conjugate, rabbit anti-FKBP12 antibody (Abcam, ab2918, 1:1000) and anti-rabbit IgG-HRP conjugate (CST, #7074 S, 1:5000).
Supplementary Figure 11 Quantification of labelling yields of endogenous FKBP12 in C2C12 cells. After C2C12 cells were incubated with LDNAS A 1 (1 µM) for 1 h, the cells were washed twi ce with PBS and l ys ed with R IPA buffer (pH 7.4, 25 mM Tris–HCl, 150 mM NaCl, 0.1% SDS, 1% Nonidet P-40, 0.25% deoxycholic acid) containing 1% protease inhibitor cocktail and rapamycin (10 µM) , which were aliquoted as input samples. All biotinylated proteins in the lysate were captured with Streptavidin agarose beads ( S Av -agarose, Thermo ). The flow through and elution fraction, as well as i nput samples, wer e subjected to Western blotting analysis using SAv- HRP and anti-FKBP12 antibody. Th e labelling yields were calculated by the following equation( Supplementar y Equation1) :
LLLLLLLLLLLLLLLLLL yy LLLLLLyy ( %) = IILLII LLLLII LLIIyyFFFFFFFF12 ,IIIIIIIIII – IILLII LLLLII LLIIyyFFFFFFFF12,FFFFFFFF IIhrrFFIIrr h × 100 ( 1) IILLII LLLLII LLIIyyFFFFFFFF12 ,IIIIIIIIII
Experiments were performed in triplicates (Ex.1–Ex.3), and the labelling yields of endogenous FKBP12 in C2C12 cells at 1 h with 1 were estimated to be 78 ± 2 % (mean ± standard deviation). Control, a sample without labelling; *, Nonspecific band derived from […]

Another series addresses T3, eDHFR (Escherichia coli, UniProt P0ABQ4).
T3 construct: thioredoxin (N, cleaved yes); made in house; host or cells: E. coli Top10
Nature of the series: Kinetic analysis of eDHFR labelling. The note with it: for kL, labelling rate constant: eDHFR 300 nM, HEPES 1 mM pH 7.2, 37 °C, mean of triplicate ± s.d.; for kinact/KI / Kd: eDHFR, pH 7.2, 37 °C; for kinact/KI: read-out: kL/Kd, second-order rate constant; for Kd: from curve fitting of kapp vs reagent concentration. It counts as biochemical.

For another series, the target named is FR. More on the design: method as in PMID 2552922. The note with it: cited from earlier work.

Values joined by “and” are separate entries in the source; they are usually repeats but may differ in a detail not shown here. Identical values can stand only once.

T3 sequence (P0ABQ4 whole entry): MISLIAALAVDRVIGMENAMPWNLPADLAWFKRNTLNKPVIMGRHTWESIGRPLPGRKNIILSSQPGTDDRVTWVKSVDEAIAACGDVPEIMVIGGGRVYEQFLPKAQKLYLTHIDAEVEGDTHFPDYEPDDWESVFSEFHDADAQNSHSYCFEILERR
T1 sequence (P62942 whole entry): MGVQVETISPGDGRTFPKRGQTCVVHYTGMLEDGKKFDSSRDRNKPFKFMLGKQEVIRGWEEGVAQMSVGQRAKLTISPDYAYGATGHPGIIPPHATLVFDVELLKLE
T2 sequence (P26883 whole entry): as the sequence (P62942 whole entry) above, with M50T, T76I, P79S counted along it

Regarding `CCC(C)(C)C(=O)C(=O)N1CCCC[C@H]1C(=O)O[C@H](CCc1ccc(OC)c(OC)c1)c1cccc(OCC(=O)NCCCCCNC(=O)c2ccc(S(=O)(=O)N(Cc3ccc([N+](=O)[O-])cc3[N+](=O)[O-])C(=O)CCCC[C@@H]3SCC4NC(=O)NC43)cc2)c1` (some centres unmarked) [compound 3], at FKBP12 [1] (after a 2-h incubation), the FKBP12 labelling yield worked out at 17%. This compound registered a fraction hydrolysed in series [2] of 5%.
As to `CC(C)NCCCn1c(Sc2cc(Cl)cc(Cl)c2)nc2c(N)ncnc21` [PU-WS13], the “inhibition of Hsp90 labelling by 11” value with endogenous Hsp90 is “less potent inhibition”. In the series on Hsp90α, the IC50 was 27000 nM.
As for `COc1cc(C(=O)C(=O)N2CCCCC2C(=O)NCCOCCOCC(=O)NCCCCCNC(=O)c2ccc(S(=O)(=O)N(CC#N)C(=O)CCCCC3SCC4NC(=O)NC43)cc2)cc(OC)c1OC` (centres unmarked) [compound 8], the “concentration required to obtain the same signal intensity as biotinylated FKBP12 labelled by 1” value at FKBP12 [3] (HeLa cell lysate with 1 µM FKBP12, 1 h, 1 at 1 µM) came out at 20 µM. Besides, on FKBP12 [4], the “kL, labelling rate constant” value is on record as “(7.6 ± 1.7) × 10^−3 s^−1”; the Kd is 100000 nM; the kinact/KI is 74 ± 19 M⁻¹ s⁻¹. Besides, at FKBP12 [4] (FKBP12 labelling), the “kL/Kd, fold less than 1” value is 392 fold.
Consider `CCC(C)(C)C(=O)C(=O)N1CCCC[C@H]1C(=O)O[C@H](CCc1ccc(OC)c(OC)c1)c1cccc(OCC(=O)NCCCCCNC(=O)c2ccc(S(=O)(=O)N(CC#N)C(=O)CCCC[C@@H]3SCC4NC(=O)NC43)cc2)c1` (some centres unmarked) [compound 1], for which, on endogenous FKBP12, the “incubation time after which the labelled band was detectable” value came to 10 min. In addition, the “labelling yield of endogenous FKBP12” value at endogenous FKBP12 (60 min, 37 °C) is 78 ± 2% and 78%. Besides, the “labelling yield of endogenous FKBP12” value on endogenous FKBP12 (120 min) was “almost quantitative”. Moreover, the “ratio of unspecific to specific labelling” value on FKBP12 [3] (HeLa cell lysate with 1 µM FKBP12, reagent 1–20 µM, 1 h) was “less than 0.15”. Moreover, the FKBP12 labelling yield on FKBP12 [1] (within 15 min) was 98%. Moreover, the “initial rate, fold faster than 2” value at FKBP12 [1] (FKBP12 labelling, 1 versus 2) is 49 fold. Also, on FKBP12 [1] (FKBP12 labelling, 1 versus 3), the “initial rate, fold faster than 3” value was found to be 105 fold. On FKBP12 [1] (in vitro, with rapamycin), the “FKBP12 labelling in the presence of rapamycin (competitive ligand)” value is “completely abolished”. This compound showed a half-life at 10 µM in series [2] (HEPES buffer, pH 7.2) of 43 h. For the same compound, at FKBP12 [4], the “kL, labelling rate constant” value is “(6.1 ± 0.6) × 10^−3 s^−1”; the Kd is 210 nM; the kinact/KI was 29000 M⁻¹ s⁻¹. The “kL, fold higher than that of LDT 5” value at FKBP12 [4] (FKBP12 labelling) turned out to be 635 fold.
Take `CCN(CC)c1ccc2cc(C(=O)Oc3c(Br)cc(C(=O)NCCCCCNC(=O)CCCCOc4c(OC)cc(Cc5cnc(N)nc5N)cc4OC)cc3Br)c(=O)oc2c1` [compound 7]: at eDHFR, the “kL, labelling rate constant” value is on record as “(3.4 ± 0.3) × 10^−4 s^−1”; the kinact/KI was determined as 590 M⁻¹ s⁻¹; the Kd turned out to be 580 nM.
With `CCC(C)(C)C(=O)C(=O)N1CCCCC1C(=O)OC(CCc1ccc(OC)c(OC)c1)c1cccc(OCC(=O)N2CCN(C(=O)c3cccc(S(=O)(=O)OCCOCCOCCNC(=O)CCCCC4SCC5NC(=O)NC54)c3)CC2)c1` (centres unmarked) [compound 5, reference compound], the “endogenous FKBP12 labelling” value on endogenous FKBP12 (<120 min) is given as “failed to label FKBP12”. Also, at FKBP12 [4], the “kL, labelling rate constant” value is reported as “(9.6 ± 0.2) × 10^−6 s^−1”; binding was put at a Kd of 210 nM; the kinact/KI was found to be 45 ± 6 M⁻¹ s⁻¹.
In turn, `CCC(C)(C)C(=O)C(=O)N1CCCC[C@H]1C(=O)O[C@H](CCc1ccc(OC)c(OC)c1)c1cccc(OCC(=O)NCCCCCNC(=O)c2ccc(S(=O)(=O)N(Cc3ccc([N+](=O)[O-])cc3)C(=O)CCCC[C@@H]3SCC4NC(=O)NC43)cc2)c1` (some centres unmarked) [compound 2] registered an FKBP12 labelling yield at FKBP12 [1] (after a 2-h incubation) of 22%. This compound also yielded a fraction hydrolysed in series [2] of 5%.
With `CN(Cc1cnc2nc(N)nc(N)c2n1)c1ccc(C(=O)N[C@@H](CCC(=O)O)C(=O)O)cc1` [methotrexate], the Kd at FR is roughly 200 nM.
As to `CCN(CC)c1ccc2cc(C(=O)NCCOCCOC(=O)n3cnc(CC(=O)NCCCCCNC(=O)CCCCOc4c(OC)cc(Cc5cnc(N)nc5N)cc4OC)c3)c(=O)oc2c1` [compound 6], at eDHFR, the “kL, labelling rate constant” value was “(5.8 ± 0.1) × 10^−6 s^−1”; the kinact/KI was found to be 11 ± 1 M⁻¹ s⁻¹; the Kd came out at 550 nM.

For orientation: IC50 means the concentration that gives 50% inhibition. As usually defined, the Kd is a measure of binding affinity in units of concentration. As usually defined, the half-life is the time needed for the level to fall by half in the phase considered. Lower therefore signals fast loss.
